Experimental data reported in patent US20230416304A1, “TETRAPEPTIDE AND COMPOSITIONS COMPRISING TETRAPEPTIDES” (THE BOOTS COMPANY PLC, priority 2020, published 2023).
The star is where a group is joined. Palmitoyl = CCCCCCCCCCCCCCCC(=O)*

Legend:
[1] = system: HSPA8; assay: LC-MS/MS relative protein abundance in HDF secretome/matrisome: HSPA8; format: cell-based, human; conditions: HDFs, peptide 8 ppm, seven-day culture, secretome + matrisome
Method: (§1) Following incubation with the peptides, liquid chromatography tandem mass spectrometry (LC-MS/MS) was used to quantify the relative abundance differences between proteins identified in the secretome/matrisome, versus an untreated control. HDFs from a donor, plated at 50,000 cells per well, were cultured with either peptide dissolved in cell culture media to achieve a final concentration of 8 ppm or with media without any peptide as a negative control. Treated and control cells were tested in triplicate. The cells were cultured as normal for five days in serum-supplemented media and then for a further two days in serum-free media (seven-day culture in total). The cell media containing the secretome (the proteins secreted by the cell) and the ECM, decellularized by incubation with EDTA (ethylenediaminetetraacetic acid), containing the matrisome (the collection of ECM associated proteins) were collected. The combined secretome and the matrisome compartments were subsequently analysed by LC-MS/MS using the following protocol.
(§2) Proteins were denatured (in urea), reduced (in dithiothreitol) and mechanically disassociated (using ultrasonication) prior to overnight digestion with trypsin (SMART Digest™ trypsin kit; Thermo Fisher). After digestion, samples were cleaned of contaminants up by removal of organic molecules and surfactants using biphasic extraction and desalted using OLIGO™ R3 Reversed Phase Resin (Thermo Fisher).
(§3) Samples (200 ng) were ran on an UltiMate® 3000 Rapid Separation Liquid Chromatographer coupled to a Q Exactive™ Hybrid Quadrupole-Orbitrap™ Mass Spectrometer for 90-minutes per sample run. Spectral data was searched again the Uniprot Human proteome database using Mascot v2.5.1. Subsequent protein identification and data-dependent quantification was performed using Progenesis QI. Normalised protein abundances were compared between each peptide treatment and control. Statistical analysis was performed within Progenesis QI using a between sample ANOVA.
(§4) The mass spectrometry data for each peptide is shown below in table 3 and FIG. 1. Changes in protein synthesis abundance due to each peptide are described below, including changes to specific proteins and the protein families they belong to (table 3). […] These protein families were as follows: antioxidants, cell stress proteins, ECM cleaving enzymes and ECM adhesion proteins; functional protein families all with a potentially important role in dermal repair and remodelling.

[2] = system: CD44; assay: LC-MS/MS relative protein abundance in HDF secretome/matrisome: CD44; format: cell-based, human; conditions: HDFs, peptide 8 ppm, seven-day culture, secretome + matrisome
Method: as §1, §2, §3, §4

[3] = system: SOD1; assay: LC-MS/MS relative protein abundance in HDF secretome/matrisome: SOD1; format: cell-based, human; conditions: HDFs, peptide 8 ppm, seven-day culture, secretome + matrisome
Method: as §1, §2, §3, §4

[4] = system: human dermal fibroblasts; assay: LC-MS/MS overall protein synthesis and functional protein families in HDFs (FIG. 1 bubble plot); format: cell-based; conditions: peptide 8 ppm, seven-day culture
Method: as §1, §2, §3, §4
In the bubble plot, the larger the bubble size, the stronger the enhancement of proteins within that protein family.

[5] = system: CTSL; assay: LC-MS/MS relative protein abundance in HDF secretome/matrisome: CTSL; format: cell-based, human; conditions: HDFs, peptide 8 ppm, seven-day culture, secretome + matrisome
Method: as §1, §2, §3, §4

[6] = system: PRDX4; assay: LC-MS/MS relative protein abundance in HDF secretome/matrisome: PRDX4; format: cell-based, human; conditions: HDFs, peptide 8 ppm, seven-day culture, secretome + matrisome
Method: as §1, §2, §3, §4

[7] = system: HSP90B1; assay: LC-MS/MS relative protein abundance in HDF secretome/matrisome: HSP90B1; format: cell-based, human; conditions: HDFs, peptide 8 ppm, seven-day culture, secretome + matrisome
Method: as §1, §2, §3, §4

[8] = system: Collagen I (PIP); assay: ELISA of Collagen I (PIP) in culture supernatant of human dermal fibroblasts; format: cell-based; conditions: HDFs, 72 hours, ELISA weighted to viable cells
Method: (§5) An ELISA is an immunological assay commonly used to measure presence and abundance of a specific proteins (antibodies, antigens, proteins and glycoproteins) in biological samples. In this case ELISAs are being used to quantify the expression of dermal extracellular proteins collagen-1, decorin and fibronectin. The quantity of collagen I is evaluated via the quantity of PIP (“carboxU-terminal pro-peptide of procollagen type I”) which is a peptide fragment resulting from the enzymatic degradation of procollagen present outside the fibroblast in the culture supernatant medium.
(§6) For all experiments, the control liquid stock was prepared by dissolving the powdered peptides in DMSO (Dimethyl Sulfoxide solvent). Peptide powders were dissolved in DMSO at recommended part per million concentrations and then further diluted in the cell culture medium and combined to obtain the desired peptide ratio.
(§7) Normal human dermal fibroblasts cells (HDFs) were cultured in contact with the tetrapeptides of the present invention, or composition without the peptide (negative control), for 72 hours. Thereafter the cultured supernatants were removed, and the quantity of dermal extracellular proteins determined using an ELISA assay for the protein of interest. For the ELISA quantification, cell viability was calculated using Hoechst staining allowing the quantity of dermal proteins to be weighted to the number of viable cells.
The quantity of Collagen I is evaluated via the quantity of PIP (“carboxU-terminal pro-peptide of procollagen type I”) which is a peptide fragment resulting from the enzymatic degradation of procollagen present outside the fibroblast in the culture supernatant medium.
(§8) The effect of LSXX tetrapeptides on ECM protein expression by fibroblasts as measured by ELISA (columns 1 to 3) versus a tetrapeptide not conforming to the LSXX structure (column 4) are presented in the table below (table 1). Results are expressed as % increase versus the negative control.

[9] = system: Decorin; assay: ELISA of decorin in culture supernatant of human dermal fibroblasts; format: cell-based; conditions: HDFs, 72 hours, ELISA weighted to viable cells
Method: as §5, §6, §7, §8

[10] = system: Fibrillin-1; assay: Immunofluorescence of Fibrillin-1 expression by HDF cells; format: cell-based, human; conditions: HDFs, 5 days
Method: Immunofluorescence relies on the use of antibodies to label a specific protein with a fluorescent dye such as fluorescein isothiocyanate (FITC). In the following experiments, indirect immunofluorescence is used where a primary antibody first recognises and attaches to the specific protein, in this case fibrillin-1, and then a secondary antibody conjugated with FITC directed against the primary antibody is used for detection.
as §6
Fibrillin-1 expression was determined using immunofluorescence. Primary human dermal fibroblast (HDF) cells were purchased from Promo Cell and came from a donor. Cells were grown in wells of 96 well black walled clear bottomed plates (Peirce, Thermo Fisher). Cells were cultured in HDF media (PromoCell) supplemented with Basic Fibroblast Growth Factor (recombinant human), 1 ng/ml and Insulin 5 μg/ml. Cells were cultured for 5 days in the presence of the tetrapeptides, changing media and peptides every 48 hours, followed by immunofluorescence assessment. At the time of treatment cells were at passage 3-4. After 5 days the media was discarded, and cells fixed with methanol. The Fibrillin-1 fibre formation was probed using primary Fibrillin-1 monoclonal antibody (11C1.3; mouse monoclonal antibody (Thermo Fisher) 1 in 100 dilution overnight) designed to detect Fibrillin-1 protein. The Fibrillin-1 fibre formation was then probed with a secondary Goat anti-mouse IgG Thermo Fisher (1 part antibody in 1000 buffer solution for 1 hour) which includes a fluorescent tag designed to reveal the primary antibody binding pattern.
The antibody binding to Fibrillin-1 fibres was visualised using a Nikon Eclipse 100 microscope fluorescence setting using an excitation lens for fluorescein isothiocyanate (FITC). Images were taken using 6 second UV exposure. ImageJ software was used to quantify the Fibrillin-1 fibre abundance and coverage in each image using a threshold of 235 measuring the fibre density.
Results are expressed as a percentage increase in fibrillin abundance compared to untreated control.
Fibrillin-1 expression by HDF cells treated with tetrapeptides conforming to the LSXX structure (Pal-LSPG-OH, Pal-LSPD-OH and Pal-LSVD-OH) and a tetrapeptide not conforming to the LSXX structure (Pal-GYIL-OH), are presented in the table below (table 2). The peptide concentration used offered the highest yield of Fibrillin-1 production.

[11] = system: Fibronectin; assay: ELISA of fibronectin in culture supernatant of human dermal fibroblasts; format: cell-based; conditions: HDFs, 72 hours, ELISA weighted to viable cells
Method: as §5, §6, §7, §8

Row | CTSL (ECM cleaving enzymes) protein enhanced versus untreated control [5] | Substance | HSPA8 (Cell stress) protein enhanced versus untreated control [1] | CD44 (ECM adhesion) protein enhanced versus untreated control [2] | SOD1 (Antioxidants) protein enhanced versus untreated control [3] | overall protein synthesis / expression in comparison to the control [4] | PRDX4 (Antioxidants) protein enhanced versus untreated control [6] | HSP90B1 (Cell stress) protein enhanced versus untreated control [7] | Collagen I (PIP), % increase versus the negative control ([8]; peptide 5 ppm) | Decorin, % increase versus the negative control ([9]; peptide 5 ppm) | Fibrillin-1, percentage increase in fibrillin abundance compared to untreated control ([10]; peptide 10 ppm) | Fibronectin, % increase versus the negative control ([11]; peptide 5 ppm) | Fibrillin-1, percentage increase in fibrillin abundance compared to untreated control ([10]; peptide 4 ppm) | Collagen I (PIP), % increase versus the negative control ([8]; peptide 3 ppm) | Decorin, % increase versus the negative control ([9]; peptide 3 ppm) | Fibrillin-1, percentage increase in fibrillin abundance compared to untreated control ([10]; peptide 8 ppm) | Fibronectin, % increase versus the negative control ([11]; peptide 3 ppm)
1 | ns | Pal-EKGD-OH [reference compound] | ns | +29% | ns | no or limited protein expression | ns | ns |  |  |  |  |  |  |  |  | 
2 |  | Pal-GYIL-OH [reference compound] |  |  |  |  |  |  | −4% | +2% | +3% | −23% |  |  |  |  | 
3 |  | Pal-LSPD-OH (Palmitoyl-LSPD-OH; SMILES CCCCCCCCCCCCCCCC(=O)N[C@@H](CC(C)C)C(=O)N[C@@H](CO)C(=O)N1CCC[C@H]1C(=O)N[C@@H](CC(=O)O)C(=O)O) [N-palmitoyl tetrapeptide Leu-Ser-Pro-Asp, free C-terminus; LSXX tetrapeptide of the invention] |  |  |  |  |  |  | +82% | +24% |  | +92% | +98% |  |  |  | 
4 | +107% | Pal-LSPG-OH (Palmitoyl-LSPG-OH; SMILES CCCCCCCCCCCCCCCC(=O)N[C@@H](CC(C)C)C(=O)N[C@@H](CO)C(=O)N1CCC[C@H]1C(=O)NCC(=O)O) [N-palmitoyl tetrapeptide Leu-Ser-Pro-Gly, free C-terminus; LSXX tetrapeptide of the invention] | +46% | +120% | +50% | overall enhancement of protein synthesis | +362% | +105% |  |  |  |  |  | +25% | +39% | +111% | +82%
5 | +42% | Pal-LSVD-OH (Palmitoyl-LSVD-OH; SMILES CCCCCCCCCCCCCCCC(=O)N[C@@H](CC(C)C)C(=O)N[C@@H](CO)C(=O)N[C@H](C(=O)N[C@@H](CC(=O)O)C(=O)O)C(C)C) [N-palmitoyl tetrapeptide Leu-Ser-Val-Asp, free C-terminus; LSXX tetrapeptide of the invention] | +48% | +57% | +35% | overall enhancement of protein synthesis | +120% | +49% | +29% | +131% | +151% | +24% |  |  |  |  | 
6 | +18% | Pal-QTAV-OH [reference compound] | +18% | +32% | ns | no or limited protein expression | ns | +30% |  |  |  |  |  |  |  |  | 
